Experiments:
Format in all cases: in vivo
[1] = test system: rice (Oryza sativa); experiment: Test B flooded paddy test, visual plant response rating 0-100; conditions: 250 g ai/ha, Flood, applied to paddy water, evaluated after 13 days
Procedure, shortened: (§1)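 2-leaf plants; flood 3 cm over soil; compound dosed into paddy water; depth kept constant; greenhouse 13 d; visual scoring vs controls. Dash = no result.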

[2] = test system: ducksalad (Heteranthera limosa); experiment: as above; conditions: 250 g ai/ha, Flood, applied to paddy water, evaluated after 13 days
Procedure, shortened: as §1

[3] = test system: sedge, umbrella (small-flower umbrella sedge, Cyperus difformis); experiment: as above; conditions: 250 g ai/ha, Flood, applied to paddy water, evaluated after 13 days
Procedure, shortened: as §1

[4] = test system: barnyardgrass (Echinochloa crusgalli); experiment: as above; conditions: 250 g ai/ha, Flood, applied to paddy water, evaluated after 13 days
Procedure, shortened: as §1

[5] = test system: wheat (Triticum aestivum); experiment: Test A preemergence soil spray, visual injury rating 0-100; conditions: 10 days
Procedure, shortened: (§2)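 Preemergence directed soil spray or postemergence spray (2-10 cm, 1-2 leaf); loam/sand mix; compound in non-phytotoxic solvent + surfactant. Greenhouse, 10 d. Visual injury vs untreated, 0 = none, 100 = complete control.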

[6] = test system: corn (Zea mays); experiment: as above; conditions: 10 days
Procedure, shortened: as §2

[7] = test system: palmer (palmer amaranth, palmer pigweed, Amaranthus palmeri); experiment: as above; conditions: 10 days
Procedure, shortened: as §2

[8] = test system: oat, wild (wild oat, Avena fatua); experiment: as above; conditions: 10 days
Procedure, shortened: as §2

[9] = test system: soybean (Glycine max); experiment: as above; conditions: 10 days
Procedure, shortened: as §2

[10] = test system: ragweed (common ragweed, Ambrosia artemisiifolia); experiment: as above; conditions: 10 days
Procedure, shortened: as §2

[11] = test system: barnyardgrass (Echinochloa crus-galli); experiment: as above; conditions: 10 days
Procedure, shortened: as §2

[12] = test system: green foxtail (Setaria viridis); experiment: as above; conditions: 10 days
Procedure, shortened: as §2

[13] = test system: blackgrass (Alopecurus myosuroides); experiment: as above; conditions: 10 days
Procedure, shortened: as §2

[14] = test system: ryegrass, Italian (italian ryegrass, Lolium multiflorum); experiment: as above; conditions: 10 days
Procedure, shortened: as §2

[15] = test system: kochia (Bassia scoparia); experiment: as above; conditions: 10 days
Procedure, shortened: as §2

[16] = test system: wheat (Triticum aestivum); experiment: Test A postemergence application, visual injury rating 0-100
Procedure, shortened: as §2

[17] = test system: corn (Zea mays); experiment: as above
Procedure, shortened: as §2

[18] = test system: palmer (palmer amaranth, palmer pigweed, Amaranthus palmeri); experiment: as above
Procedure, shortened: as §2

[19] = test system: oat, wild (wild oat, Avena fatua); experiment: as above
Procedure, shortened: as §2

[20] = test system: soybean (Glycine max); experiment: as above
Procedure, shortened: as §2

[21] = test system: ragweed (common ragweed, Ambrosia artemisiifolia); experiment: as above
Procedure, shortened: as §2

[22] = test system: barnyardgrass (Echinochloa crus-galli); experiment: as above
Procedure, shortened: as §2

[23] = test system: green foxtail (Setaria viridis); experiment: as above
Procedure, shortened: as §2

[24] = test system: blackgrass (Alopecurus myosuroides); experiment: as above
Procedure, shortened: as §2

[25] = test system: galium (catchweed bedstraw, Galium aparine); experiment: as above
Procedure, shortened: as §2

[26] = test system: horseweed (Erigeron canadensis); experiment: as above
Procedure, shortened: as §2

[27] = test system: ryegrass, Italian (italian ryegrass, Lolium multiflorum); experiment: as above
Procedure, shortened: as §2

[28] = test system: kochia (Bassia scoparia); experiment: as above
Procedure, shortened: as §2

[29] = 62 g ai/ha, 0 = no effect, 100 = complete control
[30] = 62 g ai/ha, postemergence, 10 days, 0 = no effect, 100 = complete control
[31] = Postemergence, 16 g ai/ha, greenhouse 10 days, 0 no effect, 100 complete control

CC1(C(=O)NC2C=CC(C(=O)O)C2)CN(c2cc(F)cc(F)c2)C(=O)O1 (stereo not shown) [Compound 131]
Plant response rating, Rice (0 to 100 scale, 0 is no effect and 100 is complete control) [1]: 70 | Plant response rating, Ducksalad (0 to 100 scale, 0 is no effect and 100 is complete control) [2]: 80 | Plant response rating, Sedge, Umbrella (0 to 100 scale, 0 is no effect and 100 is complete control) [3]: 95 | Plant response rating, Barnyardgrass (0 to 100 scale, 0 is no effect and 100 is complete control) [4]: 95 | Wheat plant response rating ([5]; 16 g ai/ha, 0 to 100 scale): 30 | Wheat plant response rating (0-100) [5, 29]: 90 | Corn plant response rating ([6]; 16 g ai/ha, 0 to 100 scale): 10 | Corn plant response rating (0-100) [6, 29]: 80 | Pigweed, Palmer plant response rating ([7]; 16 g ai/ha, 0 to 100 scale): 0 | Pigweed, Palmer plant response rating (0-100) [7, 29]: 80 | Oat, Wild plant response rating ([8]; 16 g ai/ha, 0 to 100 scale): 0 | Oat, Wild plant response rating (0-100) [8, 29]: 60 | Soybean plant response rating ([9]; 16 g ai/ha, 0 to 100 scale): 0 | Soybean plant response rating (0-100) [9, 29]: 80 | Ragweed plant response rating ([10]; 16 g ai/ha, 0 to 100 scale): 0 | Ragweed plant response rating (0-100) [10, 29]: 10 | Barnyardgrass plant response rating ([11]; 16 g ai/ha, 0 to 100 scale): 0 | Barnyardgrass plant response rating (0-100) [11, 29]: 80 | Foxtail, Green plant response rating ([12]; 16 g ai/ha, 0 to 100 scale): 0 | Foxtail, Green plant response rating (0-100) [12, 29]: 100 | Blackgrass plant response rating ([13]; 16 g ai/ha, 0 to 100 scale): 30 | Blackgrass plant response rating (0-100) [13, 29]: 90 | Ryegrass, Italian plant response rating ([14]; 16 g ai/ha, 0 to 100 scale): 0 | Ryegrass, Italian plant response rating (0-100) [14, 29]: 90 | Kochia plant response rating ([15]; 16 g ai/ha, 0 to 100 scale): 0 | Kochia plant response rating (0-100) [15, 29]: 90 | Wheat plant response rating (0-100) [16, 30]: 90 | Wheat plant response rating (0 to 100 scale) [16, 31]: 90 | Corn plant response rating (0-100) [17, 30]: 100 | Corn plant response rating (0 to 100 scale) [17, 31]: 50 | Pigweed, Palmer plant response rating (0-100) [18, 30]: 80 | Pigweed, Palmer plant response rating (0 to 100 scale) [18, 31]: 20 | Oat, Wild plant response rating (0-100) [19, 30]: 90 | Oat, Wild plant response rating (0 to 100 scale) [19, 31]: 90 | Soybean plant response rating (0-100) [20, 30]: 80 | Soybean plant response rating (0 to 100 scale) [20, 31]: 80 | Ragweed plant response rating (0-100) [21, 30]: 70 | Ragweed plant response rating (0 to 100 scale) [21, 31]: 0 | Barnyardgrass plant response rating (0-100) [22, 30]: 100 | Barnyardgrass plant response rating (0 to 100 scale) [22, 31]: 90 | Foxtail, Green plant response rating (0-100) [23, 30]: 90 | Foxtail, Green plant response rating (0 to 100 scale) [23, 31]: 30 | Blackgrass plant response rating (0-100) [24, 30]: 90 | Blackgrass plant response rating (0 to 100 scale) [24, 31]: 90 | Galium plant response rating (0-100) [25, 30]: 90 | Galium plant response rating (0 to 100 scale) [25, 31]: 70 | Horseweed plant response rating (0-100) [26, 30]: 80 | Horseweed plant response rating (0 to 100 scale) [26, 31]: 40 | Ryegrass, Italian plant response rating (0-100) [27, 30]: 90 | Ryegrass, Italian plant response rating (0 to 100 scale) [27, 31]: 10 | Kochia plant response rating (0-100) [28, 30]: 50 | Kochia plant response rating (0 to 100 scale) [28, 31]: 20

Reference: US20260285850A1, “SUBSTITUTED OXAZOLIDINONES AND IMIDAZOLINONES AS HERBICIDES” (FMC CORPORATION, priority 2023, published 2026)
